The values that follow come from patent US20230255954A1, “INTERLEUKIN 33 (IL-33) INHIBITION FOR TREATMENT OF CANCER, FIBROSIS AND INFLAMMATION” (The General Hospital Corporation, priority 2020, published 2023).

The structures appear in SMILES notation.

One assay relates to p-IRF3. Briefly: Poly (I:C) induced p-IRF3 expression in Pam212 cells. It is filed as cell-based, mouse. The settings on record: Pam212 cells with Poly (I:C). Here is the method: Cell lysates were prepared in LIPA buffer (Thermo Fisher Scientific, catalog no. 89900) consisting of 1× protease inhibitor cocktail, EDTA-free (Thermo Fisher Scientific, catalog no. A32955). Mice tissues were meshed and lysed by 0.1% TWEEN-(Millipore Sigma, catalog no. P1379) in PBS. Mice tissues were frozen by liquid nitrogen and thaw by incubation at 37° C. for further lysis. Cell lysates were sonicated for […], and then they were centrifugated at 13,200 rpm. After checking the protein concentration of each sample, the same amount of proteins was loaded into Mini-PROTEIN TGX™ Gels (BIO-RAD, Hercules, Calif., catalog no. 456-1083 or 456-1086) with 1× Tris/Glycine/SDS buffer (BIO-RAD, catalog no. 1610732). A few minutes later (according to protein size), they were transferred to Immobilon-P membrane (Millipore Sigma, catalog no. IPVH00010) with Transfer buffer (Boston Bioproducts, Ashland, Mass., catalog no. BP-190). Then, they were incubated 3% bovine serum albumin (Thermo Fisher Scientific, catalog no. BP1600) or 5% Skim milk (BD biosciences, San Jose, Calif., catalog no. 232100) in 1× Tris-Buffered Saline (Boston Bioproducts, catalog no. BM301X) containing 0.1% TWEEN, called TBS-T for 30 min. After the membrane was washed with TBS-T, they were subjected to immunoblot with proper antibodies for overnight at 4° C. […]

Assay [1] relates to p-IRF3 bindings to Il33 promoter region. Briefly: ChIP assay, p-IRF3 binding to Il33 promoter region in Pam212 cells. Format: cell-based, mouse. To be noted: compared to only Poly (I:C) treated group. Here is the method:
Pam212 cells that had been transfected with plasmids were fixed in 1% formaldehyde (Millipore Sigma, catalog no. F8775) for 10 min and were washed by cold PBS. Cells were lysed with buffer contained with 2.5% of glycerol, 50 mM HEPES (pH 7.5), 150 mM NaCl, 0.5 mM EDTA, 0.5% NP-40 and 0.25% Triton X-100. After centrifugation at 2,000 rpm, cells lysate were resuspended in buffer A contained with 1 mM Tris/HCl (pH 7.9), 20 mM NaCl and 0.5 mM EDTA and incubated at room temperature for 10 min. Following the second centrifugation at 2,000 rpm, cells were sonicated in sonication buffer containing 10 mM HEPES, 1 mM EDTA and 0.5% SDS for 30 min to achieve chromatin fragmentation. Following centrifugation at 13,000 rpm, proteins were immunoprecipitated with HA antibody at 4° C. overnight. Next day, the samples were incubated with 30 μL 50% slurry of ChIP-Grade Protein G agarose beads (Cell Signaling Technology, catalog no. 9007S) for 2 hours. Samples were precipitated, washed three times with wash buffer containing 20 mM Tris/HCl (pH 7.9), 10 mM NaCl, 2 mM EDTA, 0.1% SDS and Triton X-100. After the last wash step, samples were eluted with 100 μL of TE buffer contained with 100 mM Tris/HCl (pH 8), 1 mM EDTA and 1% SDS for three times. […] Precipitated DNA was purified by CMP DNA Clean & Concentrator (ZYMO research, Irvine, Calif., catalog no. D5205) and subjected to quantitative PCR. […]

As to `O=C(O)C[C@H](O)C[C@H](O)/C=C/c1c(C2CC2)nc2ccccc2c1-c1ccc(F)cc1` [pitavastatin], in the assay with p-IRF3, the “level of p-IRF3” value was “decreased”. Moreover, the “Poly (I:C) induced p-IRF3 bindings to Il33 promoter region” value in assay [1] is recorded as “significantly reduced”.
